Measurements reported in US20200303198A1, “POLISHING COMPOSITION AND POLISHING METHOD” (FUJIMI INCORPORATED, priority 2019, published 2020).

Assay: Solubility of biocide in water
Format: physicochemical
Conditions: in words

**Q.** Which solubility in water does the source give for `O=C(OCc1ccccc1)c1ccc(O)cc1` [benzyl paraoxybenzoate] here?
**A.** The solubility in water was “poor solubility in water”.
